≈ marks a conversion by molar mass, not a printed value. Entries after “also recorded” stand apart in the source; their conditions may differ. Read-outs that look alike come from different tables or passages of the source. Where a SMILES comes first, the peptide text is derived from it.
What was measured:
[1] = RP-HPLC temperature profiling (peptide self-association parameter PA); format: physicochemical; conditions: enantiomer pairs of V681 analogs, 5° C. to 80° C., relative to peptide C
How it was run: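 Peptide retention was profiled by RP-HPLC at pH 2 from 5 °C to 80 °C in 3 °C increments, using a linear gradient of 0.5% acetonitrile/min. The monomeric random-coil control peptide C profile was subtracted. PA is the maximum change in retention time relative to control C; higher PA means greater self-association.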

human erythrocytes [2] = conditions: WO 2006/065977, cited from earlier work
[3] = RP-HPLC retention as measure of overall peptide hydrophobicity; format: physicochemical; conditions: 80° C.
Description: Crude and purified peptides were analyzed on an Agilent 1100 series liquid chromatograph (Little Falls, Del.). Runs were performed on a Zorbax 300 SB-C8 column (150×2.1 mm I.D.; 5 μm particle size, 300 Å pore size) from Agilent Technologies using linear AB gradient (1% acetonitrile/min) and a flow rate of 0.25 ml/min, where eluant A was 0.2% aqueous TFA, pH 2 and eluant B was 0.2% TFA in acetonitrile.

[4] = Circular dichroism spectroscopy (helical structure); format: physicochemical
human erythrocytes [5] = assay: Hemolytic activity against human erythrocytes (HC50 / MHC, microtiter dilution); format: cell-based; conditions: V681 analog studies
[6] = 50% TFE in 0.05% TFA; cited from earlier work
human erythrocytes [7] = assay: Hemolytic activity against human erythrocytes (HC50 / MHC, microtiter dilution); format: cell-based
Description: Hemoglobin release was determined spectrophotometrically at 570 nm. The hemolytic activity was determined as the peptide concentration that caused 50% hemolysis of erythrocytes after 18 h (HC50). […] HC50 was determined by a plot of peptide concentration versus percent lysis.

Gram-negative bacteria = assay: MIC against Gram-negative bacteria (V681 analog studies); format: cell-based
Description: Minimal inhibitory concentrations (MICs) are determined using a standard microtiter dilution method, with 3 sets of determinations, in LB (Luria-Bertani) no-salt medium (10 g of tryptone and 5 g of yeast extract per liter). In some cases, Mueller Hinton (MH) medium or Brain Heart Infusion (BHI) medium is used.
Briefly, cells were grown overnight at 37° C. in LB and diluted in the same medium. Serial dilutions of the peptides are added to the microtiter plates in a volume of 100 μl followed by 10 μl of bacteria to give a final inoculum of 5×10^5 colony-forming units/ml. Plates are incubated at 37° C. for 24 hours and MICs determined as the lowest peptide concentration that inhibited growth. Alternatively, minimal inhibitory concentrations are determined using a standard microtiter dilution method in a Mueller-Hinton (MH) medium. Briefly, cells are grown overnight at 37° C. in MH broth and diluted in the same medium. In some cases, serial dilutions of the peptides are added to the microtiter plates in a volume of 100 μl followed by 10 μl of bacteria to give a final inoculum of 1×10^5 colony-forming units/ml. Plates are incubated at 37° C. for 24 hours and MICs are determined as the lowest peptide concentration that inhibited growth.

| SMILES | PA (peptide self-association parameter) [1] | Hemolytic activity (human erythrocytes [2]; after 12 hours) | Hemolytic activity (human erythrocytes [2]; after 18 hours) | Change in hydrophobicity (retention time) relative to PVL ([3]; polar face substitution) | [θ]222 molar ellipticity ([4]; 50% TFE) | α-helical content ([4]; 50% TFE) | α-helical content ([4]; benign conditions) | [θ]222 molar ellipticity ([4]; benign conditions (100 mM KCl, 50 mM aq. PO4, pH 7)) | Hemolytic activity, minimal hemolytic concentration (MHC) (human erythrocytes [5]) | Transition temperature Tm (50% of α-helical structure denatured) [6] | Fold decrease in hemolytic activity compared to V681 (human erythrocytes [7]) | MIC against Gram-negative bacteria (Gram-negative bacteria) | Change in hydrophobicity (retention time) relative to NVL (V681) ([3]; non-polar face substitution) |
| --- | --- | --- | --- | --- | --- | --- | --- | --- | --- | --- | --- | --- | --- |
| CC[C@H](C)[C@H](NC(=O)[C@H](C)NC(=O)[C@H](CCCCN)NC(=O)[C@H](CC(C)C)NC(=O)[C@H](C)NC(=O)[C@@H](NC(=O)[C@H](Cc1c[nH]cn1)NC(=O)[C@H](CC(C)C)NC(=O)[C@@H](NC(=O)[C@@H](NC(=O)[C@H](CCCCN)NC(=O)[C@@H](C)NC(=O)[C@H](C)NC(=O)[C@H](CO)NC(=O)[C@H](CCCCN)NC(=O)[C@H](Cc1ccccc1)NC(=O)[C@@H](NC(=O)[C@H](CCCCN)NC(=O)[C@H](CC(C)C)NC(=O)[C@H](Cc1ccccc1)NC(=O)[C@H](CO)NC(=O)[C@H](CCCCN)NC(=O)[C@H](Cc1c[nH]c2ccccc12)NC(=O)[C@H](CCCCN)NC(C)=O)[C@@H](C)O)[C@@H](C)O)C(C)C)[C@@H](C)O)C(=O)N[C@@H](CO)C(=O)N[C@@H](CO)C(N)=O [NAD] (HELM PEPTIDE1{[ac].K.W.K.S.F.L.K.T.F.K.S.A.[dA].K.T.V.L.H.T.A.L.K.A.I.S.S.[am]}$$$$V2.0) | 4.1 | 250 µg/mL | 31.3 µg/mL | – | – | – | – | – | – | – | – | – | – |
| CC[C@H](C)[C@H](NC(=O)[C@H](C)NC(=O)[C@H](CCCCN)NC(=O)[C@H](CC(C)C)NC(=O)[C@H](C)NC(=O)[C@@H](NC(=O)[C@H](Cc1c[nH]cn1)NC(=O)[C@H](CC(C)C)NC(=O)[C@@H](NC(=O)[C@@H](NC(=O)[C@H](CCCCN)NC(=O)[C@@H](NC(=O)[C@H](C)NC(=O)[C@H](CO)NC(=O)[C@H](CCCCN)NC(=O)[C@H](Cc1ccccc1)NC(=O)[C@@H](NC(=O)[C@H](CCCCN)NC(=O)[C@H](CC(C)C)NC(=O)[C@H](Cc1ccccc1)NC(=O)[C@H](CO)NC(=O)[C@H](CCCCN)NC(=O)[C@H](Cc1c[nH]c2ccccc12)NC(=O)[C@H](CCCCN)NC(C)=O)[C@@H](C)O)C(C)C)[C@@H](C)O)C(C)C)[C@@H](C)O)C(=O)N[C@@H](CO)C(=O)N[C@@H](CO)C(N)=O [Peptide V681] (Ac-KWKSFLKTFKSAVKTVLHTALKAISS-NH2) | 7.2 | – | – | -0.35 min | −27,300 | 94% | 45% | −12,900 | 15.6 µg/mL | 79.3 °C | – | – | – |
| CC[C@H](C)[C@H](NC(=O)[C@H](C)NC(=O)[C@H](CCCCN)NC(=O)[C@H](CC(C)C)NC(=O)[C@H](C)NC(=O)[C@@H](NC(=O)[C@H](Cc1cnc[nH]1)NC(=O)[C@H](CC(C)C)NC(=O)[C@@H](NC(=O)[C@@H](NC(=O)[C@H](CCCCN)NC(=O)[C@H](CCCCN)NC(=O)[C@H](C)NC(=O)[C@H](CO)NC(=O)[C@H](CCCCN)NC(=O)[C@H](Cc1ccccc1)NC(=O)[C@@H](NC(=O)[C@H](CCCCN)NC(=O)[C@H](CC(C)C)NC(=O)[C@H](Cc1ccccc1)NC(=O)[C@H](CO)NC(=O)[C@H](CCCCN)NC(=O)[C@H](Cc1c[nH]c2ccccc12)NC(=O)[C@H](CCCCN)NC(C)=O)[C@@H](C)O)[C@@H](C)O)C(C)C)[C@@H](C)O)C(=O)N[C@@H](CO)C(=O)N[C@@H](CO)C(N)=O [NKL] | 2.1 | – | – | – | – | – | – | – | undetectable level; also recorded: non-hemolytic; also recorded: no detectable hemolytic activity; also recorded: no measurable activity | – | > 32 fold | 3.1 µg/mL (≈ 1.04 µM) | -12.61 min |

— US9352015B2, “Antimicrobial peptides” (priority 2009, dated 2016)
